Results published in US5366733A, “Method for the treatment of periodontal disease by sustained delivery of a therapeutic agent to the periodontal pocket, and composition of matter therefor” (priority 1991, dated 1994).

What was measured:
[1] = dog, in vivo
Procedure: Therefore, a study to evaluate four different minocycline periodontal formulations relative to determining minocycline levels in crevicular fluid was conducted in a dog model. The study utilized beagle dogs with surgically created "chronic" intrabony periodontal defects. This model entails the extraction of the two lower fourth premolars and the induction of surgically created intrabony defects at the mesial surface of the first molars and distal surface of the third premolars.
In sequence, the defects were created as follows: First, the lower fourth premolars were extracted, sockets were allowed to heal for one month, and dogs received a full mouth scaling and tooth cleaning. […] Dogs were monitored for an additional four weeks.
For evaluation of crevicular levels of minocycline, dogs were placed under general anesthesia, and the various formulations were administered into the periodontal pockets associated with the created defects. […] The strip was then removed, and the relative amount of fluid was determined by a Periotron 6000 instrument. […]
Strips were assayed for minocycline by a microbiological technique that involves use of the minocycline-susceptible bacterium, Bacillus cereus. […] Zones of inhibited bacterial growth were plotted, and the quantity of minocycline present was determined by comparison with zones obtained with minocycline solutions of known concentration. […]

[2] = test system: organisms associated with periodontal disease; details: cited from earlier work

Periods for which minimum inhibitory concentrations (MIC's) can be achieved [1]: up to two
SMILES: CN(C)c1ccc(O)c2c1C[C@H]1C[C@H]3[C@H](N(C)C)C(O)=C(C(N)=O)C(=O)[C@@]3(O)C(O)=C1C2=O [minocycline, 7-dimethylamino-6-deoxy-6-demethyltetracycline]
MIC's for organisms associated with periodontal disease [2]: 0.05 to 1.56 µg/mL
